Laboratory results from patent US20240279281A1, “Peptide Inhibitors of Interleukin-23 Receptor” (Janssen Pharmaceutica NV, priority 2023, published 2024).
Starred links: 1 amine or outer side, 2 acyl side, 3 side chain; linkers in the order of their positions; H or OH if unused. Positions of bridges follow the written chain, without caps; N, C: chain ends. Non-standard residues stand in square brackets, D forms with d. Residues, ends and D or L forms follow the SMILES beside them. No end group written: not given here. *: point of attachment. Trp(7-(3-AcNH-Ph)) = CC(=O)Nc1cccc(-c2cccc3c(C[C@H](N)C(=O)O)c[nH]c23)c1; X4 = O=C([C@H](Cc1ccc2cc(-c3ccc(N4CCOCC4)cc3)ccc2c1)N[*:1])[*:2]; 2Nal(6-OH) = N[C@@H](Cc1ccc2cc(O)ccc2c1)C(=O)O; Trp(7-Me) = Cc1cccc2c(C[C@H](N)C(=O)O)c[nH]c12; Abu(4-yl) = O=C([C@H](CC[*:3])N[*:1])[*:2]; 3Pal(5-Me) = Cc1cncc(C[C@H](N)C(=O)O)c1; AEF = NCCOc1ccc(C[C@H](N)C(=O)O)cc1; 3Pal = N[C@@H](Cc1cccnc1)C(=O)O; Ethyl(2-guanidino) = N=C(N)NCC*; Pen = CC(C)(S)[C@H](N)C(=O)O; Thp = NC1(C(=O)O)CCOCC1; Ava = NCCCCC(=O)O; Sar = CNCC(=O)O

T1: IL-23R (Homo sapiens, UniProt Q5VWK5)
T1 construct: host or cells: HEK293
T1 sequence (Q5VWK5 24-629): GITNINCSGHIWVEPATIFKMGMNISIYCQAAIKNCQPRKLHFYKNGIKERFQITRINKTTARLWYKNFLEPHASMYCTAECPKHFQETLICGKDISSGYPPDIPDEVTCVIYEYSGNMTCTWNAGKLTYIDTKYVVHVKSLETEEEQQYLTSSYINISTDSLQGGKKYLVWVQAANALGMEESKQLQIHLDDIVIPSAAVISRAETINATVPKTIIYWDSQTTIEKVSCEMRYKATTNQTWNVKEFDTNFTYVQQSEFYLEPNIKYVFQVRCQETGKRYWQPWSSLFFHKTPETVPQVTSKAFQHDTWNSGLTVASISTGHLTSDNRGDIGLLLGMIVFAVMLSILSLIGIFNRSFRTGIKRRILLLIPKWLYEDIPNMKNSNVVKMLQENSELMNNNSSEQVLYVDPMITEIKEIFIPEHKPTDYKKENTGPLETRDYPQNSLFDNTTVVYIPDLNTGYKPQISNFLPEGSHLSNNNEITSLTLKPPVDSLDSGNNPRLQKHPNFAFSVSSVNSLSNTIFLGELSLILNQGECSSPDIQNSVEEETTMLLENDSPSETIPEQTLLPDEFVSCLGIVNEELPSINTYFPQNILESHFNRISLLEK

T2: IL-23-stimulated phosphorylated STAT3 in peripheral blood mononuclear cells (PBMCs) (Homo sapiens, UniProt Q5VWK5)
T2 sequence (Q5VWK5 24-629): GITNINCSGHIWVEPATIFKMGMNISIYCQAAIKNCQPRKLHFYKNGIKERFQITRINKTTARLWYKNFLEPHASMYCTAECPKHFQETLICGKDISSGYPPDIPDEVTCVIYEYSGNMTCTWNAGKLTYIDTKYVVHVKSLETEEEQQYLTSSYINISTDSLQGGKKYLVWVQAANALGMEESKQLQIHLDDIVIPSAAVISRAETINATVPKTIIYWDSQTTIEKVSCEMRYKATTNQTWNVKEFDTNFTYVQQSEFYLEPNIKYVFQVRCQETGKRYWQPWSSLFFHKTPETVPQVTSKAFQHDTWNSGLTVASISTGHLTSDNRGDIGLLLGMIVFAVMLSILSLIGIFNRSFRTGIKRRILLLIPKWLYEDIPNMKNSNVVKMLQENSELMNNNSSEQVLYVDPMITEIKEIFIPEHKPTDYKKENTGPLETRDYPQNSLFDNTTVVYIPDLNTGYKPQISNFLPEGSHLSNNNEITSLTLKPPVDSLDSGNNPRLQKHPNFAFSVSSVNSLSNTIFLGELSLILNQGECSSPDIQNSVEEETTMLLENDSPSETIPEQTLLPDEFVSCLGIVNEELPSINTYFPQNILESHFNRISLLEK

T3: interleukin-23 receptor (IL-23R), Q5VWK5
T3 chain: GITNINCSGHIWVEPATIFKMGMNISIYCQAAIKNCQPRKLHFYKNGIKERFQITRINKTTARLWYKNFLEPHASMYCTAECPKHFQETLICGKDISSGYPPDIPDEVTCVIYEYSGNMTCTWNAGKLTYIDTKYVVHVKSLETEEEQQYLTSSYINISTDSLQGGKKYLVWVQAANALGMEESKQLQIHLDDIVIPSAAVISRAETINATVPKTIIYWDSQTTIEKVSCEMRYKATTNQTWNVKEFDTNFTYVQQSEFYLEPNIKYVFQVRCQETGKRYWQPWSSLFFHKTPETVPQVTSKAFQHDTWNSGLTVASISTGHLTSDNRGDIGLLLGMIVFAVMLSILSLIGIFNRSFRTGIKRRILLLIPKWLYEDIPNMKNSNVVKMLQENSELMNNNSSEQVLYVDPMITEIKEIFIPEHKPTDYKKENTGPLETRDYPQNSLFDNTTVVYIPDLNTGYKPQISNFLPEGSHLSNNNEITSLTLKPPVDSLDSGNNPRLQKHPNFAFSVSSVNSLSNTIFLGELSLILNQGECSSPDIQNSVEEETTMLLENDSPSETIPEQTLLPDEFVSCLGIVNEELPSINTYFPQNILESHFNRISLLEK


Legend:
IL-23R = target: T1, IL-23R; test: IL23R Reporter Assay; type: cell-based; conditions: HEK293 cells containing IL-23R, IL-12Rβ1 and STAT-inducible luciferase reporter; 10 ng/mL IL-23; 5 h; read-out: IC50
Description: Compounds were serially diluted in 100% (v/v) DMSO) and plated using an Echo acoustic dispenser (Labcyte) into 1536-well non-treated black assay plates (Corning #9146). […] After 5 h at 37° C., 5% CO2, 95% relative humidity, cells were placed at 20° C. and treated with BioGlo reagent (Promega) according to the Manufacturer's instructions. Luminescence was measured on a Pherastar FSX (BMG LabTech).

[1] = target: T2, IL-23-stimulated phosphorylated STAT3 in peripheral blood mononuclear cells (PBMCs); test: PBMC pSTAT3 Assay; type: cell-based; conditions: PBMCs from healthy donors, IL-23 5 ng/mL, 30 minutes, read-out: PBMC pSTAT3 IC50
Description: Cryopreserved peripheral blood mononuclear cells (PBMCs) from healthy donors were thawed and washed twice in ImmunoCult-XF T cell expansion medium (XF-TCEM) supplemented with CTL anti-aggregate wash. The cells were counted, resuspended at 2-6×10^5 cells per mL XF-TCEM supplemented with penicillin/streptomycin and 100 ng/mL IL-1β (BioLegend, 579404), and cultured in tissue culture flasks coated with anti-CD3 (eBioscience, 16-0037-85 or BD Pharmingen, 555329) at 37° C. in 5% CO2. On day 4 of culture, PBMCs were collected, washed twice in RPMI-1640 supplemented with 0.1% BSA (RPMI-BSA), and incubated in RPMI-BSA in upright tissue culture flasks for ˜4 hours at 37° C. in 5% CO2. Following this ‘starvation,’ a total of 6×10^4 cells in 30 μL RPMI-BSA was transferred into each well of a 384-well plate pre-spotted with peptide or DMSO. The cells were incubated for 30 minutes prior to the addition of IL-23 at a final concentration of 5 ng/mL. The cells were stimulated with cytokine for 30 minutes at 37° C. in 5% CO2, transferred onto ice for 10 minutes, and lysed. Cell lysates were stored at −80° C. until phosphorylated STAT3 was measured using the phospho-STAT panel kit (Meso Scale Discovery, K15202D).

[2] = target: T3, interleukin-23 receptor (IL-23R), Q5VWK5; test: cell-based or functional assay

Row | IC50 (IL-23R) | IC50 [1] | IL23R Reporter Assay IC50 [2] | Molecule
1 | < 10 nM | < 0.01 nM |  | C[C@@H](O)[C@@H]1NC(=O)[C@H](CC(N)=O)NC(=O)[C@@H]2CCSC[C@H](NC(=O)[C@H](CCC(N)=O)NC(=O)[C@H](Cc3c[nH]c4ccccc34)NC1=O)C(=O)N[C@@H](Cc1ccc(OCCN)cc1)C(=O)N[C@@H](Cc1ccc3cc(O)ccc3c1)C(=O)NC1(CCOCC1)C(=O)N[C@H](C(=O)N[C@@H](CC(N)=O)C(=O)N[C@@H](Cc1cccnc1)C(=O)N(C)CC(N)=O)CCC(=O)NCCCCC(=O)N2 [compound 172] ([Ava][Abu(4-yl)]NTWQC[AEF][2Nal(6-OH)][Thp]EN[3Pal][Sar]-NH2; thioether 2-7; lactam N-11)
2 | < 10 nM | < 0.01 nM |  | CC(=O)NCCCC[C@@H]1NC(=O)[C@H](Cc2c[nH]c3c(-c4cccc(NC(C)=O)c4)cccc23)NC(=O)[C@H]([C@@H](C)O)NC(=O)[C@H](CC(N)=O)NC(=O)[C@@H](NC(=O)[C@@H](CCCNC(=N)N)NC(C)=O)C(C)(C)SSC(C)(C)[C@@H](C(=O)N[C@@H](Cc2ccc(OCCNC(=N)N)cc2)C(=O)N[C@@H](Cc2ccc3cc(O)ccc3c2)C(=O)NC2(C(=O)N[C@@H](CCC(=O)O)C(=O)N[C@@H](CC(N)=O)C(=O)N[C@@H](Cc3cncc(C)c3)C(=O)N(C)CC(N)=O)CCOCC2)NC1=O [compound 15, MeCO-r-Pen(3)-N-T-7(3NAcPh)W-K(Ac)-Pen(3)-AEF(G)-6OH2Nal-THP-E-N-5MePyridinAla-Sar-CONH2] (Ac-[dR][Pen]NT[Trp(7-(3-AcNH-Ph))]K(Ac)[Pen]Y(Ethyl(2-guanidino))[2Nal(6-OH)][Thp]EN[3Pal(5-Me)][Sar]-NH2; disulfide 2-7)

Second part, the molecule before the results:

Row | Molecule | IC50 (IL-23R) | IC50 [1] | IL23R Reporter Assay IC50 [2]
3 | CC(=O)NCCCC[C@@H]1NC(=O)[C@H](Cc2c[nH]c3c(C)cccc23)NC(=O)[C@H]([C@@H](C)O)NC(=O)[C@H](CC(N)=O)NC(=O)[C@@H](NC(=O)[C@@H](CCCNC(=N)N)NC(C)=O)C(C)(C)SSC(C)(C)[C@@H](C(=O)N[C@@H](Cc2ccc(OCCN)cc2)C(=O)N[C@@H](Cc2ccc3cc(-c4ccc(N5CCOCC5)cc4)ccc3c2)C(=O)NC2(C(=O)N[C@@H](CCC(=O)O)C(=O)N[C@@H](CC(N)=O)C(=O)NC3(C(N)=O)CCOCC3)CCOCC2)NC1=O [SEQ ID NO: 432, MeCO-r-Pen(3)-N-T-7MeW-K(Ac)-Pen(3)-AEF-2Nal6(Ph4(NMorph))-THP-E-N-THP-CONH2] (Ac-[dR][Pen]NT[Trp(7-Me)]K(Ac)[Pen][AEF][X4][Thp]EN[Thp]-NH2; disulfide 2-7) | > 100 nM |  | 
4 | R[Pen]NT[Trp(7-Me)]K(Ac)[Pen][2‑amino‑3‑(4-(2-aminoethoxy)phenyl)propanoic acid][2‑amino‑3‑(6-hydroxynaphthalen-2-yl)propanoic acid][Thp]KN[3Pal][Sar] (not fully specified (bridges); ends and bridges not checked; also: K11: lipidated lysine, lipid not given here) [SEQ ID NO: 86] |  |  | < 10 nM
5 | R[Pen]NT[Trp(7-Me)]K(Ac)[Pen][2‑amino‑3‑(4-(2-aminoethoxy)phenyl)propanoic acid][2‑amino‑3‑(6-hydroxynaphthalen-2-yl)propanoic acid][Thp]KN[3Pal][Sar] (not fully specified (bridges); ends and bridges not checked; also: K11: lipidated lysine, lipid not given here) [SEQ ID NO: 87] |  |  | < 10 nM
